Experimental findings from ChEMBL document CHEMBL1697692, “Developing structure-activity relationships for the prediction of hepatotoxicity” (Chem Res Toxicol, 2010) are described below.

The series deals with Hepatotoxicity. Briefly: Literature-mined public compounds from Greene et al multi-species hepatotoxicity modelling dataset.
`CN[C@H](CC(C)C)C(=O)N[C@H]1C(=O)N[C@@H](CC(N)=O)C(=O)N[C@H]2C(=O)N[C@H]3C(=O)N[C@H](C(=O)N[C@H](C(=O)O)c4cc(O)cc(O)c4-c4cc3ccc4O)[C@H](O)c3ccc(c(Cl)c3)Oc3cc2cc(c3O[C@@H]2O[C@H](CO)[C@@H](O)[C@H](O)[C@H]2O[C@H]2C[C@](C)(N)[C@H](O)[C@H](C)O2)Oc2ccc(cc2Cl)[C@H]1O` [VANCOMYCIN]: the Hepatotoxicity result is recorded as “HH: Evidence of human hepatotoxicity”.

`Nc1ncnc2c1ncn2[C@@H]1O[C@H](CO)[C@@H](O)[C@@H]1O` [VIDARABINE]: the Hepatotoxicity entry is recorded as “NE: No evidence of hepatotoxicity in any species”.

Consider `CC[C@]1(O)C[C@@H]2CN(CCc3c([nH]c4ccccc34)[C@@](C(=O)OC)(c3cc4c(cc3OC)N(C)[C@H]3[C@@](O)(C(=O)OC)[C@H](OC(C)=O)[C@]5(CC)C=CCN6CC[C@]43[C@@H]65)C2)C1.O=S(=O)(O)O` [VINBLASTINE SULFATE], for which the Hepatotoxicity entry is reported as “NE: No evidence of hepatotoxicity in any species”.

For `CC[C@]1(O)C[C@H]2CN(CCc3c([nH]c4ccccc34)[C@@](C(=O)OC)(c3cc4c(cc3OC)N(C=O)[C@H]3[C@@](O)(C(=O)OC)[C@H](OC(C)=O)[C@]5(CC)C=CCN6CC[C@]43[C@@H]65)C2)C1.O=S(=O)(O)O` [VINCRISTINE SULFATE], the Hepatotoxicity entry is on record as “HH: Evidence of human hepatotoxicity”.

On to `CCCCCCCCCCCCCCCC(=O)OC/C=C(C)/C=C/C=C(C)/C=C/C1=C(C)CCCC1(C)C` [VITAMIN A PALMITATE], for which the Hepatotoxicity entry is “AH: Evidence for animal hepatotoxicity but not tested in humans”.

In the case of `CC(=O)CC(c1ccccc1)c1c(O)c2ccccc2oc1=O` (stereo not drawn) [WARFARIN], the Hepatotoxicity result is given as “WE: Weak evidence (<10 case reports) of human hepatotoxicity”.

In the case of `COc1cc(C(=O)NS(=O)(=O)c2ccccc2C)ccc1Cc1cn(C)c2ccc(NC(=O)OC3CCCC3)cc12` [ZAFIRLUKAST], the Hepatotoxicity result is “HH: Evidence of human hepatotoxicity”.

Regarding `Nc1ccn([C@H]2CC[C@@H](CO)O2)c(=O)n1` [ZALCITABINE], the Hepatotoxicity result was “NE: No evidence of hepatotoxicity in any species”.

`Cc1cn([C@H]2C[C@H](N=[N+]=[N-])[C@@H](CO)O2)c(=O)[nH]c1=O` [ZIDOVUDINE]: the Hepatotoxicity result is listed as “HH: Evidence of human hepatotoxicity”.

For `CC(c1cc2ccccc2s1)N(O)C(N)=O` (stereo not drawn) [ZILEUTON], the Hepatotoxicity entry was “HH: Evidence of human hepatotoxicity”.

Consider `Cc1ccc(-c2nc3ccc(C)cn3c2CC(=O)N(C)C)cc1` [ZOLPIDEM], for which the Hepatotoxicity entry is “WE: Weak evidence (<10 case reports) of human hepatotoxicity”.

For the compound `Cc1cc(CC(=O)O)n(C)c1C(=O)c1ccc(Cl)cc1` [ZOMEPIRAC], the Hepatotoxicity entry was “NE: No evidence of hepatotoxicity in any species”.

As to AURANOFIN, the Hepatotoxicity result is reported as “HH: Evidence of human hepatotoxicity”.

Regarding AUROTHIOGLUCOSE, the Hepatotoxicity result is given as “HH: Evidence of human hepatotoxicity”.

For the compound BISMUTH SUBSALICYLATE, the Hepatotoxicity result was “NE: No evidence of hepatotoxicity in any species”.

On to CADMIUM DICHLORIDE, for which the Hepatotoxicity entry is “AH: Evidence for animal hepatotoxicity but not tested in humans”.

As to CARBOPLATIN, the Hepatotoxicity result is “HH: Evidence of human hepatotoxicity”.

In the case of CISPLATIN, the Hepatotoxicity entry was “HH: Evidence of human hepatotoxicity”.

As for CYANOCOBALAMIN, the Hepatotoxicity result was “NE: No evidence of hepatotoxicity in any species”.

Consider DICHROMATE, for which the Hepatotoxicity entry is “AH: Evidence for animal hepatotoxicity but not tested in humans”.

For the compound FERROUS SULFATE, the Hepatotoxicity result is “NE: No evidence of hepatotoxicity in any species”.

For the compound GADOLINIUM HYDROCHLORIDE, the Hepatotoxicity result is given as “AH: Evidence for animal hepatotoxicity but not tested in humans”.

Consider GALLIUM NITRATE HYDRATE, for which the Hepatotoxicity result is listed as “NE: No evidence of hepatotoxicity in any species”.

For the compound GENTAMICIN, the Hepatotoxicity result is “NE: No evidence of hepatotoxicity in any species”.

For the compound LACTOSE, ANHYDROUS, the Hepatotoxicity entry is recorded as “NE: No evidence of hepatotoxicity in any species”.

In the case of MERCURIC CHLORIDE, the Hepatotoxicity result is reported as “AH: Evidence for animal hepatotoxicity but not tested in humans”.

For POTASSIUM DICHROMATE, the Hepatotoxicity result is “AH: Evidence for animal hepatotoxicity but not tested in humans”.

Take TRANSPLATIN: the Hepatotoxicity entry was “AH: Evidence for animal hepatotoxicity but not tested in humans”.
